ChEMBL document CHEMBL2413024, “Design and synthesis of pyrido[3,2-α]carbazole derivatives and their analogues as potent antitumour agents” (Eur J Med Chem, 2013)

Assays:
A549 [1] = experiment: Antitumor activity against human A549 cells after 72 hrs by sulforhodamine B assay; format: functional, cell-based; settings: A549, 72 h
HT-29 [2] = experiment: Antitumor activity against human HT-29 cells after 72 hrs by sulforhodamine B assay; format: functional, cell-based; settings: HT-29, 72 h
[3] = Aqueous solubility of the compound in pure water at 25 degC; format: physicochemical
A549 [4] = experiment: Ratio of R16 IC50 to compound IC50 for human A549 cells; format: functional
HT-29 [5] = experiment: Ratio of R16 IC50 to compound IC50 for human HT-29 cells; format: functional

Row | IC50 (A549 [1]) [nM] | IC50 (HT-29 [2]) [nM] | solubility [3] [mg/mL] | Compound | Ratio IC50 (A549 [4]) | Ratio IC50 (HT-29 [5])
1 | 200 | 1090 |  | CN(C)CCN1C(=O)c2cccc3c2c(cc2c4ccccc4sc32)C1=O |  | 
2 |  |  | 22.4 | CN(C)CCNC(=O)c1cc2c3cc(O)ccc3n(C)c2c2cccnc12.Cl |  | 
3 | 360 | 220 |  | CN(C)CCNC(=O)c1cc2c3ncccc3n(C)c2c2cccnc12 |  | 
4 | 160 | 150 |  | CN(C)CCNC(=O)c1cc2c3cnccc3n(C)c2c2cccnc12 |  | 
5 | 130 | 130 |  | CN(C)CCNC(=O)c1cc2c3ccncc3n(C)c2c2cccnc12 |  | 
6 | 160 | 180 |  | CN(C)CCNC(=O)c1cc2c3cccnc3n(C)c2c2cccnc12 |  | 
7 | 270 | 630 |  | Cn1c2ccccc2c2cc(C(=O)NCCN3CCCC3)c3ncccc3c21 |  | 
8 | 780 | 1250 |  | Cn1c2ccccc2c2cc(C(=O)NCCN3CCNCC3)c3ncccc3c21 |  | 
9 | 890 | 1240 |  | CN1CCN(CCNC(=O)c2cc3c4ccccc4n(C)c3c3cccnc23)CC1 |  | 
10 | 1180 | 2240 |  | Cn1c2ccccc2c2cc(C(=O)NCCN3CCOCC3)c3ncccc3c21 |  | 
11 | 820 | 1300 |  | Cn1c2ccccc2c2cc(C(=O)NCCN3CCCCC3)c3ncccc3c21 |  | 
12 | 2110 | 2470 |  | Cn1c2ccccc2c2cc(C(=O)NCCN)c3ncccc3c21 |  | 
13 | 1370 | 1460 |  | CNCCNC(=O)c1cc2c3ccccc3n(C)c2c2cccnc12 |  | 
14 | 3060 | 4450 |  | Cn1c2ccccc2c2cc(C(=O)NCCO)c3ncccc3c21 |  | 
15 | 560 | 850 |  | CN(C)CCCNC(=O)c1cc2c3ccccc3n(C)c2c2cccnc12 |  | 
16 | 870 | 1060 |  | Cn1c2ccccc2c2cc(C(=O)NCCCN3CCCC3)c3ncccc3c21 |  | 
17 | 710 | 1410 |  | Cn1c2ccccc2c2cc(C(=O)NCCCN3CCOCC3)c3ncccc3c21 |  | 
18 | 2230 | 2060 |  | CN(C)CCCNC(=O)c1cc2c3ccccc3oc2c2cccnc12 |  | 
19 | 600 | 1160 |  | CN(C)CCCNC(=O)c1cc2c3ccccc3sc2c2cccnc12 |  | 
20 | 1890 | 2270 |  | CN(C)CCNC(=O)c1cc2c3ccccc3oc2c2cccnc12 |  | 
21 | 270 | 600 |  | CN(C)CCNC(=O)c1cc2c3ccccc3sc2c2cccnc12 |  | 
22 | 220 | 200 |  | COc1ccc2c(c1)c1cc(C(=O)NCCN(C)C)c3ncccc3c1n2C |  | 
23 | 70 | 110 |  | CN(C)CCNC(=O)c1cc2c3cc(O)ccc3n(C)c2c2cccnc12 | 7 | 10
24 | 170 | 160 |  | CN(C)CCNC(=O)c1cc2c3cc(F)ccc3n(C)c2c2cccnc12 |  | 
25 | 260 | 230 |  | CN(C)CCNC(=O)c1cc2c3cc(Cl)ccc3n(C)c2c2cccnc12 |  | 
26 | 690 | 830 |  | CN(C)CCNC(=O)c1cc2c3ccccc3[nH]c2c2cccnc12 |  | 
27 | 770 | 1390 |  | CN(C)CCCNC(=O)c1cc2c3ccccc3[nH]c2c2cccnc12 |  | 
28 | 390 | 470 |  | CN(C)CCNC(=O)c1cc2c3ccccc3n(C)c2c2cccnc12 |  | 
